Experimental data published in patent publication US11028077B2, “Crystalline pharmaceutical and methods of preparation and use thereof” (NOVARTIS PHARMACEUTICALS CORPORATION, priority 2008, dated 2021).
Where two headings read alike, the source gives them in different places.

Assays:
[1] = Rat ocular pharmacokinetics of [14C]-compound (ocular tissue levels); type: in vivo; details: for Concentration, Aqueous humor: ocular dosing in rats
[2] = Single dose ocular and IV ADME study with [14C]-compound in rats, quantitative whole body autoradiography; type: in vivo, rat; details: for excretion in feces, % of the administered radioactivity: 0 to 168 hours postdose
[3] = test system: human mononuclear cells (PBMC) stimulated with staphylococcal enterotoxin B (SEB); test: cells; type: cell-based
[4] = 0.5 hour postdose, topical ocular 1 mg/eye
[5] = 0.5 hour postdose, topical ocular 1 mg/eye, above upper limit of quantification
[6] = 8 hours postdose, topical ocular 1 mg/eye
[7] = 24 hours postdose, topical ocular 1 mg/eye
[8] = at 2 hours postdose vs 0.5 hour

With `CS(=O)(=O)c1cccc(C[C@H](NC(=O)c2c(Cl)cc3c(c2Cl)CCN(C(=O)c2ccc4ccoc4c2)C3)C(=O)O)c1` [[^14C]-compound of Formula I] the “Concentration, Conjunctiva (bulbar)” value ([1]; 0.5 hour after administration) was 31500 ng Equivalents [^14C]-compound of Formula I/g tissue, the “Concentration, Conjunctiva (palpebral)” value ([1]; 0.5 hour after administration) was 26300 ng Equivalents [^14C]-compound of Formula I/g tissue and the “Concentration, Cornea” value ([1]; 0.5 hour after administration) was 17150 ng Equivalents [^14C]-compound of Formula I/g tissue. The “Concentration, Iris-ciliary body” value ([1]; 0.5 hour after administration) was 17550 ng Equivalents [^14C]-compound of Formula I/g tissue, the “Concentration, Lens” value ([1]; 0.5 hour after administration) was 38.8 ng Equivalents [^14C]-compound of Formula I/g tissue and the “Concentration, Optic Nerve” value ([1]; 0.5 hour after administration) was 796 ng Equivalents [^14C]-compound of Formula I/g tissue. For the same molecule, the “Concentration, Retina and Choroid (with RPE)” value ([1]; 0.5 hour after administration) was 510 ng Equivalents [^14C]-compound of Formula I/g tissue, the “Concentration, Sclera” value ([1]; 0.5 hour after administration) was 2750 ng Equivalents [^14C]-compound of Formula I/g tissue and the “Concentration, Vitreous Humor” value ([1]; 0.5 hour after administration) was 1330 ng Equivalents [^14C]-compound of Formula I/g tissue. The “Concentration, Aqueous humor” value ([1]; 0.5 hour after administration) was 1770 ng Equivalents [^14C]-compound of Formula I/g tissue, the “Concentration, Conjunctiva (bulbar)” value ([1]; 4.0 hours after administration) was 4480 ng Equivalents [^14C]-compound of Formula I/g tissue and the “Concentration, Conjunctiva (palpebral)” value ([1]; 4.0 hours after administration) was 21830 ng Equivalents [^14C]-compound of Formula I/g tissue. For the same molecule, the “Concentration, Cornea” value ([1]; 4.0 hours after administration) was 1346 ng Equivalents [^14C]-compound of Formula I/g tissue, the “Concentration, Iris-ciliary body” value ([1]; 4.0 hours after administration) was 500 ng Equivalents [^14C]-compound of Formula I/g tissue and the “Concentration, Lens” value ([1]; 4.0 hours after administration) was 9.69 ng Equivalents [^14C]-compound of Formula I/g tissue. The “Concentration, Optic Nerve” value ([1]; 4.0 hours after administration) was 0 ng Equivalents [^14C]-compound of Formula I/g tissue, the “Concentration, Retina and Choroid (with RPE)” value ([1]; 4.0 hours after administration) was 46.7 ng Equivalents [^14C]-compound of Formula I/g tissue and the “Concentration, Sclera” value ([1]; 4.0 hours after administration) was 387 ng Equivalents [^14C]-compound of Formula I/g tissue. For the same molecule, the “Concentration, Vitreous Humor” value ([1]; 4.0 hours after administration) was 183 ng Equivalents [^14C]-compound of Formula I/g tissue, the “Concentration, Aqueous humor” value ([1]; 4.0 hours after administration) was 116 ng Equivalents [^14C]-compound of Formula I/g tissue and the “radioactivity concentration, eye” value [2, 4] was 18100 ng equivalents [^14C]-compound of Formula I/g. For the same molecule, the “radioactivity concentration, liver” value [2, 4] was 272 ng equivalents [^14C]-compound of Formula I/g, the “radioactivity concentration, uveal tract” value [2, 4] was 9330 ng equivalents [^14C]-compound of Formula I/g and the “radioactivity concentration, esophageal contents” value ([2]; 0.5 hour postdose, topical ocular 1 mg/eye, male Sprague Dawley rats, above upper limit of quantification) was 399000 ng equivalents [^14C]-compound of Formula I/g. The “radioactivity concentration, nasal turbinates” value [2, 5] was 352000 ng equivalents [^14C]-compound of Formula I/g, the “radioactivity concentration, small intestinal contents” value [2, 5] was 349000 ng equivalents [^14C]-compound of Formula I/g and the “radioactivity level, eye lens” value ([2]; 2 hours postdose, topical ocular 1 mg/eye) was “BLQ”. The “radioactivity concentration, cecum contents” value [2, 6] was 57600 ng equivalents [^14C]-compound of Formula I/g, the “radioactivity concentration, large intestinal contents” value [2, 6] was 133000 ng equivalents [^14C]-compound of Formula I/g and the “radioactivity concentration, uveal tract” value ([2]; 12 hours postdose, topical ocular 1 mg/eye) was 610 ng equivalents [^14C]-compound of Formula I/g. The “radioactivity concentration, cecum contents” value [2, 7] was 5870 ng equivalents [^14C]-compound of Formula I/g, the “radioactivity concentration, large intestinal contents” value [2, 7] was 18000 ng equivalents [^14C]-compound of Formula I/g and the “excretion in feces, % of the administered radioactivity” value ([2]; IV administration 10 mg/kg) was about 95%. For the same molecule, the “decline of radioactivity concentration, esophageal contents” value [2, 8] was about 100 fold, the “decline of radioactivity concentration, esophagus” value [2, 8] was “approximately 50 fold” and the “excretion in feces, % of the administered radioactivity” value ([2]; ocular administration 1 mg/eye) was “approximately 60%”. For the same molecule, the “Urinary excretion, % of the administered radioactivity” value ([2]; ocular or IV administration) was “up to 2%” and the “metabolites in pooled plasma, urine and fecal homogenates” value ([2]; rats, up to 168 hrs following topical ocular or IV dose) was “no metabolites were isolated”.

`O=C(NC(Cc1cc(=O)[nH]c2ccccc12)C(=O)O)c1ccc(Cl)cc1` (stereo not drawn) [Rebamipide, reference compound] gave an EC50 ([3]; read-out: EC50 Cytokine Release GM-CSF) of over 1 mM, an EC50 ([3]; read-out: EC50 Cytokine Release IFNγ) of over 1 mM and an EC50 ([3]; read-out: EC50 Cytokine Release IL-1α) of over 1 mM. For the same molecule, the EC50 ([3]; read-out: EC50 Cytokine Release IL-1β) was over 1 mM, the EC50 ([3]; read-out: EC50 Cytokine Release IL-2) was over 1 mM and the EC50 ([3]; read-out: EC50 Cytokine Release IL-3) was over 1 mM. The EC50 ([3]; read-out: EC50 Cytokine Release IL-4) was over 1 mM, the EC50 ([3]; read-out: EC50 Cytokine Release IL-5) was over 1 mM and the EC50 ([3]; read-out: EC50 Cytokine Release IL-6) was over 1 mM. It also gave an EC50 ([3]; read-out: EC50 Cytokine Release IL-10) of over 1 mM, an EC50 ([3]; read-out: EC50 Cytokine Release IL-12p40) of over 1 mM and an EC50 ([3]; read-out: EC50 Cytokine Release IL-13) of over 1 mM. It also gave an EC50 ([3]; read-out: EC50 Cytokine Release IP-10) of over 1 mM, an EC50 ([3]; read-out: EC50 Cytokine Release MCP-1) of over 1 mM and an EC50 ([3]; read-out: EC50 Cytokine Release MIP-1α) of over 1 mM. The EC50 ([3]; read-out: EC50 Cytokine Release TNF-α) was over 1 mM.
